Measured values published in patent US8946478B2, “Benzamide derivative with anticancer activity and preparation method and use thereof” (Zhejiang Hisun Pharmaceutical Co., Ltd., priority 2010, dated 2015).

Legend:
18 tumor cell strains = experiment: In vitro efficacy screening, summary over the tumor cell strains; assay type: cell-based, human; details: in vitro screening; for inhibitory effects on tumor cell proliferation (in words): BSI-201 as positive drug
Protocol: (§1) Human colon cancer cell strains (Colo205 and HCT-116), human breast cancer cell strains (MCF-7 and MDA-MB435), human lung cancer cell strains (A549, 95D and NCI460), human ovarian cancer cell strains (OVCAR-5, OVCAR-8, HO8910 and SKOV-3), human leukemia (HL-60 and K562), human prostate cancer (DU145 and BXPC-3), human uterine cancer (Hela), human pancreatic cancer (PANC-1), human hepatoma (HepG 2) were all obtained from ATCC. Colo205, HL-60, K562 cells were cultured in RPMI 1640 containing 2 mM/L glutamine, 10% FBS, 1.0 mM sodium pyruvate. HCT-116, MCF-7, A549, 95D, HO8910, NCI460, OVCAR-5, OVCAR-8, DU145, BXPC-3, Hela, PANC-1, HepG2 cells were cultured in DMEM containing 2 mM/L glutamine, 10% FBS. MDA-MB435 cells were cultured in L-15 containing 2 mM/L glutamine, 10% FBS. SKOV-3 cells were cultured in McCoy's containing 2 mM/L glutamine, 10% FBS. Colo205, HL-60 and K562 cells were seeded in 96-well plates, 150 μL/well and 8000 cells/well, and the 96-well plates were pre-incubated in an incubator at 37° C. with 5% CO2, 100% relative humidity for 24 hours. HCT-116, MCF-7, NCI460, OVCAR-5, OVCAR-8, Hela, HepG 2 and MDA-MB435 cells were seeded in 96-well plates, 5000 cells/well; A549, 95D, HO8910, DU145, BXPC-3, PANC-1 and SKOV-3 cells were seeded in 96-well plates, 10000 cells/well, and the 96-well plates were pre-incubated in an incubator at 37° C. with 5% CO2, 100% relative humidity for 24 hours, to allow the cells to adhere.
(§2) 50 μL of pre-cooled 50% (mass/volume) TCA was added into the time zero control wells for each cell strain to fix the cells. To other wells, 50 μL of various concentrations of compounds were added, and maintained for 48 h, wherein each drug concentration was in triplicate, and there were blank control wells (cell culture medium without cells), drug-free control wells (with no drugs but the same volume of complete medium) and positive drug BSI-201 control wells, and the plates were incubated in an incubator at 37° C. with 5% CO2, full humidity (100% relative humidity) for 48 hours
(§3) 50 μL pre-cooled 50% (mass/volume) TCA was added onto the surface of the culture medium to fix the cells, which was then placed at 4° C. for 1 h. The supernatant was removed and each well was washed with deionized water for 5 times to remove TCA, serum proteins, etc. After dried in the air, about 100 μL enough amount of 0.4% SRB (formulated with 1% acetic acid) was added into each well, and was placed at room temperature for 20 to 30 min. Liquid in each well was discarded and each well was rapidly washed with 1% acetic acid for five times, to remove unbound dye until the unbound dye was completely rinsed clean. After dried in the air until the moisture was invisible, each well was added 200 μL Tris base to dissolve, shaken on a plate oscillator for 5 min or mixed by beating up and down with a pipette tip, and then measured on the multi-function instruction (M5 Detection System, MD Group Ltd.) with a detection wavelength of 515 nm, zero adjusted with 690 nm blank control.
(§4) The dose-response curve was plotted by XL-fit to determine the GI50 value.

[1] = test system: human uterine cancer Hela; experiment: In vitro SRB tumor cell growth inhibition (GI50); assay type: cell-based; details: Homo sapiens, HeLa, 48 h, Hela cells
Protocol: as §1, §2, §3, §4

[2] = test system: human lung cancer cell strain A549; experiment: In vitro SRB tumor cell growth inhibition (GI50); assay type: cell-based; details: A549 cells, 48 h
Protocol: as §1, §2, §3, §4

[3] = test system: human lung cancer cell strain 95D; experiment: In vitro SRB tumor cell growth inhibition (GI50); assay type: cell-based; details: Homo sapiens, 95-D, 48 h, 95D cells
Protocol: as §1, §2, §3, §4

[4] = test system: human ovarian cancer cell strain HO8910; experiment: In vitro SRB tumor cell growth inhibition (GI50); assay type: cell-based; details: HO-8910, HO8910 cells, 48 h
Protocol: as §1, §2, §3, §4

human leukemia HL-60 = experiment: In vitro SRB tumor cell growth inhibition (GI50); assay type: cell-based; details: Homo sapiens, HL-60, 48 h, HL-60 cells
Protocol: as §1, §2, §3, §4

[5] = test system: human ovarian cancer cell strain OVCAR-8; experiment: In vitro SRB tumor cell growth inhibition (GI50); assay type: cell-based; details: OVCAR-8 cells
Protocol: as §1, §2, §3, §4

[6] = test system: human prostate cancer DU145; experiment: In vitro SRB tumor cell growth inhibition (GI50); assay type: cell-based; details: Homo sapiens, DU-145, 48 h, DU145 cells
Protocol: as §1, §2, §3, §4

[7] = test system: human ovarian cancer cell strain OVCAR-5; experiment: In vitro SRB tumor cell growth inhibition (GI50); assay type: cell-based; details: OVCAR-5 cells, 48 h
Protocol: as §1, §2, §3, §4

[8] = test system: human lung cancer cell strain NCI-460; experiment: In vitro SRB tumor cell growth inhibition (GI50); assay type: cell-based; details: Homo sapiens, NCI-460, 48 h, NCI-460 cells
Protocol: as §1, §2, §3, §4

[9] = test system: human breast cancer cell strain MDA-MB435; experiment: In vitro SRB tumor cell growth inhibition (GI50); assay type: cell-based; details: Homo sapiens, MDA-MB-435, 48 h, MDA-MB435 cells
Protocol: as §1, §2, §3, §4

human hepatoma HepG 2 = experiment: In vitro SRB tumor cell growth inhibition (GI50); assay type: cell-based; details: HepG2, HepG 2 cells, 48 h
Protocol: as §1, §2, §3, §4

[10] = test system: human ovarian cancer cell strain SKOV-3; experiment: In vitro SRB tumor cell growth inhibition (GI50); assay type: cell-based; details: SK-OV-3, SKOV-3 cells, 48 h
Protocol: as §1, §2, §3, §4

[11] = test system: human prostate cancer BXPC-3; experiment: In vitro SRB tumor cell growth inhibition (GI50); assay type: cell-based; details: BXPC-3 cells, 48 h
Protocol: as §1, §2, §3, §4

human leukemia K562 = experiment: In vitro SRB tumor cell growth inhibition (GI50); assay type: cell-based; details: Homo sapiens, K562, 48 h, K562 cells
Protocol: as §1, §2, §3, §4

[12] = test system: human breast cancer cell strain MCF-7; experiment: In vitro SRB tumor cell growth inhibition (GI50); assay type: cell-based; details: Homo sapiens, MCF7, 48 h, MCF-7 cells
Protocol: as §1, §2, §3, §4

[13] = test system: human pancreatic cancer PANC-1; experiment: In vitro SRB tumor cell growth inhibition (GI50); assay type: cell-based; details: Homo sapiens, PANC-1, 48 h, PANC-1 cells
Protocol: as §1, §2, §3, §4

[14] = test system: human colon cancer cell strain Colo205; experiment: In vitro SRB tumor cell growth inhibition (GI50); assay type: cell-based; details: Colo 205 cells, 48 h
Protocol: as §1, §2, §3, §4

[15] = test system: human colon cancer cell strain HCT-116; experiment: In vitro SRB tumor cell growth inhibition (GI50); assay type: cell-based; details: Homo sapiens, HCT-116, 48 h, HCT-116 cells
Protocol: as §1, §2, §3, §4

| SMILES | efficacy in inhibition of tumor cell proliferation, graded in words against I-1 (18 tumor cell strains) | inhibitory effects on tumor cell proliferation (in words) (18 tumor cell strains) | GI50 [1] | GI50 [2] | GI50 [3] | GI50 [4] | GI50 (human leukemia HL-60) | GI50 ([5]; Homo sapiens, OVCAR-8, 48 h) | GI50 [6] | GI50 [7] | GI50 [8] | GI50 [9] | GI50 (human hepatoma HepG 2) | GI50 [10] | GI50 [11] | GI50 (human leukemia K562) | GI50 [12] | GI50 [13] | GI50 [14] | GI50 [15] | other results |
| --- | --- | --- | --- | --- | --- | --- | --- | --- | --- | --- | --- | --- | --- | --- | --- | --- | --- | --- | --- | --- | --- |
| C#Cc1ccc(C(=O)NC(=O)OC)cc1[N+](=O)[O-] [Compound I-2, N-methoxycarbonyl-4-ethynyl-3-nitrobenzamide] | slightly lower than that of I-1 | have inhibitory effects on tumor cell proliferation | 7.1 µM | 8.04 µM | 3.62 µM | 3.44 µM | 2.02 µM | 14.1 µM | 3.31 µM | 4.24 µM | 33.8 µM | 11.7 µM | 11.3 µM | 3.81 µM | 7.42 µM | 2.8 µM | 2.08 µM | 13.7 µM | 7.03 µM | – | – |
| C#Cc1ccc(C(=O)N(CC)CC)cc1[N+](=O)[O-] [Compound I-14, N,N-diethyl-4-ethynyl-3-nitrobenzamide] | slightly lower than that of I-1 | have inhibitory effects on tumor cell proliferation | 6.7 µM | 17.6 µM | 16.8 µM | 5 µM | 1.99 µM | 3.64 µM | 4.17 µM | 20.9 µM | 20.9 µM | 1.01 µM | 4.27 µM | 10.3 µM | 4.9 µM | 4.52 µM | 20.1 µM | 19.9 µM | 2.79 µM | 11.2 µM | – |
| C#Cc1ccc(C(=O)NCC)cc1[N+](=O)[O-] [Compound I-17, N-ethyl-4-ethynyl-3-nitrobenzamide] | slightly lower than that of I-1 | have inhibitory effects on tumor cell proliferation | 4.43 µM | 12.2 µM | 10.3 µM | 3.34 µM | 2.62 µM | 4.6 µM | 2.99 µM | 16.1 µM | 14 µM | 2.76 µM | 5.85 µM | 8.4 µM | 4.79 µM | 2.59 µM | 10.6 µM | 12.4 µM | 3.21 µM | 5.06 µM | – |
| C#Cc1ccc(C(=O)N2CCCC2)cc1[N+](=O)[O-] [Compound I-20, (4-ethynyl-3-nitrophenyl)(pyrrolidin-1-yl)ketone] | slightly lower than that of I-1 | have inhibitory effects on tumor cell proliferation | 8.98 µM | 17.3 µM | 15.1 µM | 4.85 µM | 2.24 µM | 4.01 µM | 4.99 µM | 20.3 µM | 19.9 µM | 8.49 µM | 5.54 µM | 9.91 µM | 3.35 µM | 4.35 µM | 20.6 µM | 7.64 µM | 2.61 µM | 9.99 µM | – |
| C#Cc1ccc(C(=O)N2CCCCC2)cc1[N+](=O)[O-] [Compound I-21, (4-ethynyl-3-nitrophenyl)(piperidin-1-yl)ketone] | slightly lower than that of I-1 | have inhibitory effects on tumor cell proliferation | 4.17 µM | 17.9 µM | 14.5 µM | 4.34 µM | 2.87 µM | 1.64 µM | 2.24 µM | 17.5 µM | 5.86 µM | 5.86 µM | 16 µM | 22.5 µM | 3.91 µM | 1.77 µM | 16.1 µM | 12.5 µM | 1.52 µM | 8.44 µM | – |
| C#Cc1ccc(C(=O)N2CCN(C)CC2)cc1[N+](=O)[O-] [Compound I-24, (4-ethynyl-3-nitrophenyl)(4-methylpiperazin-1-yl)ketone] | slightly lower than that of I-1 | have inhibitory effects on tumor cell proliferation | 10.1 µM | 30.1 µM | 25.8 µM | 10.2 µM | 2.47 µM | – | 6.17 µM | 35.6 µM | 31.1 µM | 14.5 µM | 7.12 µM | 9.77 µM | 10.2 µM | 8.03 µM | 21.5 µM | 24.3 µM | 10.9 µM | 8.62 µM | GI50 ([5]; 48 h): 8.92 µM |
